The values below are quoted from earlier work in patent US12128066B2, “Product for treating skin fungus and its micronized preparation method” (priority 2021, dated 2024).

The conditions of this data set: in water or organic solvents.

`S=[Se]=S` [Selenium disulfide]: the Solubility result was “almost insoluble”.
